Results as given in ChEMBL document CHEMBL1201862, “PubChem BioAssay data set” (2004).
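Cultured in 96-well plates, cells were exposed to test compound for 48 hours across five concentrations. Abbreviation: GI50, concentration required for 50% inhibition of growth.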 Active and inactive are the calls of the source. No stated cut-off is given here; in the data, active = GI50 up to about 1.1 µM and inactive = higher.

Tests used:
Assay in all cases: NCI-60 cell line screen, 48 h
ACHN = test system: ACHN
BT-549 = test system: BT-549
COLO 205 = test system: COLO 205
DU-145 = test system: DU-145
Hs-578T = test system: Hs-578T
M14 = test system: M14
MCF7 = test system: MCF7
MDA-MB-231 = test system: MDA-MB-231
Malme-3M = test system: Malme-3M
NCI-H23 = test system: NCI-H23
NCI-H460 = test system: NCI-H460
NCI/ADR-RES = test system: NCI/ADR-RES
OVCAR-3 = test system: OVCAR-3
OVCAR-8 = test system: OVCAR-8
PC-3 = test system: PC-3
SN12C = test system: SN12C
TK-10 = test system: TK-10
UACC-257 = test system: UACC-257
UACC-62 = test system: UACC-62

| SMILES | GI50 (ACHN) | GI50 (BT-549) | GI50 (COLO 205) | GI50 (DU-145) | GI50 (Hs-578T) | GI50 (M14) | GI50 (MCF7) | GI50 (MDA-MB-231) | GI50 (Malme-3M) | GI50 (NCI-H23) | GI50 (NCI-H460) | GI50 (NCI/ADR-RES) | GI50 (OVCAR-3) | GI50 (OVCAR-8) | GI50 (PC-3) | GI50 (SN12C) | GI50 (TK-10) | GI50 (UACC-257) | GI50 (UACC-62) |
| --- | --- | --- | --- | --- | --- | --- | --- | --- | --- | --- | --- | --- | --- | --- | --- | --- | --- | --- | --- |
| COC(=O)c1ccc2c(O)c(O)ccc2c1 | 17.1 µM (inactive) | 12.5 µM (inactive) | 13.6 µM (inactive) | 16.4 µM (inactive) | 27 µM (inactive) | 16.4 µM (inactive) | 18.5 µM (inactive) | 6.56 µM (inactive) | 11.8 µM (inactive) | 5.28 µM (inactive) | 19.9 µM (inactive) | 20.1 µM (inactive) | 7 µM (inactive) | 16.1 µM (inactive) | 5.6 µM (inactive) | 9.14 µM (inactive) | 21.5 µM (inactive) | 14.9 µM (inactive) | 15.9 µM (inactive) |
| C#CC(O)/C=C/CCCCCCC#CC/C=C\CC#CCCCCCCCCC(O)C#C (stereo unspecified) | 12.2 µM (inactive) | 6.71 µM (inactive) | 2.58 µM (inactive) | 5.83 µM (inactive) | 20.6 µM (inactive) | 1.11 µM (active) | 17.4 µM (inactive) | 3.32 µM (inactive) | 1.95 µM (inactive) | 1.02 µM (active) | 17.1 µM (inactive) | 3.39 µM (inactive) | 10.1 µM (inactive) | 1.91 µM (inactive) | 14.3 µM (inactive) | 1.99 µM (inactive) | 13.1 µM (inactive) | 3.35 µM (inactive) | 9.08 µM (inactive) |
| COc1cc2nc(-c3cccs3)nc(N3CCN(c4ccccc4C(F)(F)F)CC3)c2cc1OC | > 100 µM (inactive) | > 100 µM (inactive) | > 100 µM (inactive) | > 100 µM (inactive) | 89.9 µM (inactive) | > 100 µM (inactive) | 46.2 µM (inactive) | > 100 µM (inactive) | > 100 µM (inactive) | > 100 µM (inactive) | > 100 µM (inactive) | > 100 µM (inactive) | 21.5 µM (inactive) | 93.3 µM (inactive) | 79.3 µM (inactive) | > 100 µM (inactive) | 45 µM (inactive) | > 100 µM (inactive) | 76.7 µM (inactive) |
| N#Cc1c(N2CCOCC2)[nH]c(=O)c(C(c2c(Cl)cccc2Cl)c2c(O)c(C#N)c(N3CCOCC3)[nH]c2=O)c1O | 16.1 µM (inactive) | 17.6 µM (inactive) | 13.8 µM (inactive) | 23.9 µM (inactive) | 19.5 µM (inactive) | 17.9 µM (inactive) | 16.7 µM (inactive) | 16.6 µM (inactive) | 12.9 µM (inactive) | 16.2 µM (inactive) | > 100 µM (inactive) | 27.4 µM (inactive) | 16.4 µM (inactive) | 18.6 µM (inactive) | 17.8 µM (inactive) | 20.1 µM (inactive) | 17.5 µM (inactive) | 17.8 µM (inactive) | 16.6 µM (inactive) |
| CC(=O)Nc1ccc(CNc2cc(=O)[nH]c(=O)[nH]2)cc1 | > 100 µM (inactive) | > 100 µM (inactive) | > 100 µM (inactive) | > 100 µM (inactive) | > 100 µM (inactive) | > 100 µM (inactive) | > 100 µM (inactive) | > 100 µM (inactive) | > 100 µM (inactive) | > 100 µM (inactive) | > 100 µM (inactive) | > 100 µM (inactive) | > 100 µM (inactive) | > 100 µM (inactive) | > 100 µM (inactive) | > 100 µM (inactive) | > 100 µM (inactive) | > 100 µM (inactive) | > 100 µM (inactive) |
| CCOC(=O)n1[nH]c(=O)n(-c2ccccc2)c1=O | > 100 µM (inactive) | > 100 µM (inactive) | > 100 µM (inactive) | > 100 µM (inactive) | > 100 µM (inactive) | > 100 µM (inactive) | > 100 µM (inactive) | > 100 µM (inactive) | > 100 µM (inactive) | > 100 µM (inactive) | > 100 µM (inactive) | > 100 µM (inactive) | > 100 µM (inactive) | > 100 µM (inactive) | > 100 µM (inactive) | > 100 µM (inactive) | > 100 µM (inactive) | > 100 µM (inactive) | > 100 µM (inactive) |
| CC1(C)CCCC2CC2CCC(C)(C)C1=O (stereo unspecified) | > 100 µM (inactive) | > 100 µM (inactive) | 18.5 µM (inactive) | > 100 µM (inactive) | > 100 µM (inactive) | 42 µM (inactive) | 18.3 µM (inactive) | 82.4 µM (inactive) | 58.3 µM (inactive) | > 100 µM (inactive) | 34.8 µM (inactive) | 28.8 µM (inactive) | 25.5 µM (inactive) | 82.8 µM (inactive) | 51.1 µM (inactive) | 71 µM (inactive) | > 100 µM (inactive) | 39.5 µM (inactive) | > 100 µM (inactive) |
| COC(=O)C1CCC(=O)N1C(c1ccc2c(c1)OCO2)c1ccc2c(c1)OCO2 (stereo unspecified) | > 100 µM (inactive) | > 100 µM (inactive) | > 100 µM (inactive) | > 100 µM (inactive) | > 100 µM (inactive) | > 100 µM (inactive) | > 100 µM (inactive) | > 100 µM (inactive) | > 100 µM (inactive) | > 100 µM (inactive) | > 100 µM (inactive) | > 100 µM (inactive) | > 100 µM (inactive) | > 100 µM (inactive) | > 100 µM (inactive) | > 100 µM (inactive) | > 100 µM (inactive) | > 100 µM (inactive) | > 100 µM (inactive) |
| CC(=O)O[C@H]1CC[C@@]2(C)C(=CC[C@H]3[C@@H]4C/C(=C\c5ccc(N(C)C)cc5)[C@H](OC(C)=O)[C@@]4(C)CC[C@@H]32)C1 | 8.71 µM (inactive) | 12 µM (inactive) | 4.54 µM (inactive) | 23.8 µM (inactive) | 3.72 µM (inactive) | 14.2 µM (inactive) | 7.62 µM (inactive) | 12.5 µM (inactive) | 12.6 µM (inactive) | 13.1 µM (inactive) | 5.19 µM (inactive) | 13.1 µM (inactive) | 8.93 µM (inactive) | 11.3 µM (inactive) | 4.41 µM (inactive) | 14.7 µM (inactive) | 15.6 µM (inactive) | 6.14 µM (inactive) | 6.41 µM (inactive) |
| CC(C)(C)OC(=O)CC(NC(=O)OC(C)(C)C)C(=O)Oc1ccc([N+](=O)[O-])cc1 (stereo unspecified) | > 100 µM (inactive) | > 100 µM (inactive) | > 100 µM (inactive) | > 100 µM (inactive) | > 100 µM (inactive) | > 100 µM (inactive) | > 100 µM (inactive) | > 100 µM (inactive) | > 100 µM (inactive) | > 100 µM (inactive) | > 100 µM (inactive) | > 100 µM (inactive) | > 100 µM (inactive) | > 100 µM (inactive) | > 100 µM (inactive) | > 100 µM (inactive) | > 100 µM (inactive) | > 100 µM (inactive) | 11.1 µM (inactive) |
| NC(=O)C1=C(O)C[C@@H]2CC3Cc4cccc(O)c4C(=O)C3=C(O)[C@]2(O)C1=O (stereo partly specified) | 1.07 µM (active) | 1.87 µM (inactive) | 1.63 µM (inactive) | 3.16 µM (inactive) | 2.81 µM (inactive) | 1.84 µM (inactive) | 1.79 µM (inactive) | 2.78 µM (inactive) | 2 µM (inactive) | 1.85 µM (inactive) | 1.56 µM (inactive) | 3.24 µM (inactive) | 2.77 µM (inactive) | 2.92 µM (inactive) | 1.8 µM (inactive) | 3.01 µM (inactive) | 4.86 µM (inactive) | 3.07 µM (inactive) | 2.15 µM (inactive) |
| COC(=O)C1=C(OC(=O)/C(=C/c2ccc(Cl)cc2)c2ccccc2)C(C(=O)OC)[C@@]2(O)[C@@H](C(=O)OC)[C@H](C)C[C@@H]1[C@@H]2C(=O)OC (stereo partly specified) | > 100 µM (inactive) | 22.2 µM (inactive) | > 100 µM (inactive) | > 100 µM (inactive) | 37 µM (inactive) | > 100 µM (inactive) | > 100 µM (inactive) | > 100 µM (inactive) | > 100 µM (inactive) | 9.73 µM (inactive) | 61.4 µM (inactive) | 37.4 µM (inactive) | > 100 µM (inactive) | 4.45 µM (inactive) | 37.5 µM (inactive) | > 100 µM (inactive) | > 100 µM (inactive) | > 100 µM (inactive) | 83.6 µM (inactive) |
| CC(Oc1ccc(Cl)cc1Cl)C(=O)NN1C(=O)CSC1c1ccccc1 (stereo unspecified) | 68.5 µM (inactive) | 24 µM (inactive) | > 100 µM (inactive) | 91 µM (inactive) | 45.6 µM (inactive) | 54.2 µM (inactive) | 55.3 µM (inactive) | 37.8 µM (inactive) | 40.9 µM (inactive) | 86.5 µM (inactive) | > 100 µM (inactive) | 86.3 µM (inactive) | 96.4 µM (inactive) | 51.1 µM (inactive) | 32.4 µM (inactive) | 69.2 µM (inactive) | > 100 µM (inactive) | 53.2 µM (inactive) | 50.2 µM (inactive) |
| CN(Cc1cnc2nc(N)nc(N)c2n1)c1ccc(C(=O)NCS(=O)(=O)O)cc1 | 64.9 µM (inactive) | > 100 µM (inactive) | > 100 µM (inactive) | 25.7 µM (inactive) | > 100 µM (inactive) | > 100 µM (inactive) | 57.9 µM (inactive) | > 100 µM (inactive) | > 100 µM (inactive) | > 100 µM (inactive) | 92.7 µM (inactive) | 34.3 µM (inactive) | > 100 µM (inactive) | > 100 µM (inactive) | 48.1 µM (inactive) | > 100 µM (inactive) | > 100 µM (inactive) | > 100 µM (inactive) | > 100 µM (inactive) |
